Measurements published in article PMC11487632 (Molecular Pharmaceutics, 2024).
In brackets after ≈: the same amount, converted by molar mass. Read-outs that look alike come from different tables or passages of the source.

How the values were obtained:
[1] = cited from earlier work
[2] = Pre-dissolution procedure: apparent solubility of pure APIs in buffer with predissolved XAT derivatives (HPLC, Noyes-Whitney fit); assay type: physicochemical; conditions: for effect of predissolved TPH on API solubility: 5-20 mM TPH in 100 mM phosphate buffer pH 6.8; for effect of predissolved CFN on API solubility: 10-50 mM CFN in 100 mM phosphate buffer pH 6.8; for solubility: phosphate buffer, 25 °C, pH 6.8, aqueous buffer, thermodynamic from solid, read-out: solubility (eq 1); for solubility / saturated concentration (curve fitting eq 1): 100 mM phosphate buffer pH 6.8, 298 K
Description: The sample solution was filtered with a membrane filter (Minisart RC 4 with 0.22 μm pore size; Sartorius, Göttingen, Germany). The fractionation of the API or XAT derivative in the filtrate was performed via HPLC (Shimadzu Co., Kyoto, Japan) using a mobile phase of 25 mM citric acid buffer (pH 3.0):methanol of 3:7 at a flow rate of 1 mL/min.
To assess the apparent solubility of pure APIs in solutions of XAT derivatives, “pre-dissolution procedures” were conducted. […] The API samples, adjusted to exceed saturation, were added to 5 mL of the dissolving medium and shaken in a water bath at 298 K for a specific duration. The concentration of API in the supernatant was measured using HPLC. The solubility concentrations of all APIs were determined from each API’s standard curves. The R-square values of all standard curves are over 0.995.
The dissolution process of the pure APIs or API mixtures assumably corresponded to a linear correlation or a saturation curve. The API samples were homogenized using an agate mortar and pestle to align the particle sizes without sieving, considering the potential contamination of superfine powders. The immediate dissolution of the adhering powders in the solution at t = 0 was assumed; additionally, their concentrations were treated as the initial concentration (C = C0) if a sink condition was applicable owing to the higher solubility of the API.
For curves resembling a saturation curve, nonlinear curve fitting using the Noyes–Whitney integral expression (eq 1) was applied:[48],[49] [drawing 1] 1 where Ceq is the apparent solubility of the API, k is the dissolution rate constant, and S is the surface area of the sample particles. […] Curve-fitting procedures employed the Solver module of Microsoft Excel 2016 with the implemented GRG nonlinear option. The recrystallized precipitates were verified by X-ray powder diffraction (XRPD) and differential scanning calorimetry (DSC); no cocrystals or other generated solids were observed.

[3] = set-up: method as in previous study; conditions: ref previous study, cited from earlier work; for solubility during the predissolution procedure: presence or absence of cimetidine (CIM) in solution insignificant; for solubility during the codissolution procedure: simultaneous addition of CIM crystal powder
[4] = Co-dissolution procedure: apparent solubility of API mixtures with CFN, TPH, TBR or XAT (HPLC, Noyes-Whitney fit); assay type: physicochemical; conditions: for increase of XAT-derivative solubility by IBP and DCF (NSAIDs): equimolar IBP or DCF mixtures; for effect of codissolved CFN on API solubility / saturated concentration / effect of codissolved TBR on API dissolution curve / saturated concentration / effect of codissolved TPH on API solubility / saturated concentration / effect of codissolved XAT on API dissolution curve / saturated concentration: equimolar mixture
[5] = ref 18 (given for CFN and TPH only); cited from earlier work
[6] = ref 18 (given for CFN and TPH only); cited from earlier work; remark: listed apart in the source
[7] = ref 18 (not printed for TBR and XAT); cited from earlier work
[8] = cited from earlier work; remark: listed apart in the source

SMILES: Cn1c(=O)c2c(ncn2C)n(C)c1=O [CFN, caffeine]
- distribution volume Vd ([1]; CFN): 0.7 L/kg

SMILES: COc1ccc2c(c1)c(CC(=O)O)c(C)n2C(=O)c1ccc(Cl)cc1 [INM, indomethacin]
- effect of CFN added to the dissolving medium on solubility ([2]; data not published): enhanced
- solubility during the predissolution procedure [3]: 625 µM (≈ 224 µg/mL)
- solubility during the codissolution procedure [3]: 3340 µM (≈ 1200 µg/mL)

SMILES: O=c1[nH]c(=O)c2[nH]cnc2[nH]1 [XAT, xanthine]
- increase of XAT-derivative solubility by IBP and DCF (NSAIDs) [4]: 2 fold

SMILES: Cn1cnc2c1c(=O)[nH]c(=O)n2C [TBR, theobromine]
- log P [5]: −0.78
- water solubility [6]: 2000 µM (≈ 360 µg/mL)
- solubility ([4]; 25 °C, aqueous buffer, thermodynamic from solid, pure, 100 mM phosphate buffer pH 6.8, read-out: solubility of the pure XAT derivative): 1000 µM (≈ 180 µg/mL)
- increase of XAT-derivative solubility by IBP and DCF (NSAIDs) [4]: 3 fold
- pKa [7]: 10.05

SMILES: Cn1c(=O)c2[nH]cnc2n(C)c1=O [TPH, theophylline]
- log P [5]: 0.00
- water solubility [6]: 40000 µM (≈ 7210 µg/mL)
- distribution volume Vd ([1]; TPH, no reference given): 0.5 L/kg
- therapeutic range in the blood ([1]; narrow therapeutic range): 0.06 to 0.11 mmol/L
- effect of IBP on saturation concentration of the XAT derivative ([4]; equimolar mixtures with IBP, effect of DCF greater than that of IBP): increased

SMILES: O=C(O)Cc1ccccc1Nc1c(Cl)cccc1Cl [DCF, diclofenac]
- solubility ([8]; 50 mM MES buffer (pH 5.5)): ~100 µM (≈ 29.6 µg/mL)
- solubility ([8]; 100 mM phosphate buffer (pH 6.45)): approximately 0.7 mM
- change of solubility on addition of 10 mM LDC to the dissolution buffer ([8]; within the buffering capacity range): increased
- effect of codissolved CFN on API solubility / saturated concentration ([4]; 100 mM phosphate buffer pH 6.8): increased
- effect of codissolved TBR on API dissolution curve / saturated concentration ([4]; 100 mM phosphate buffer pH 6.8): did not significantly differ
- effect of codissolved TPH on API solubility / saturated concentration ([4]; 100 mM phosphate buffer pH 6.8): increased
- effect of codissolved XAT on API dissolution curve / saturated concentration ([4]; 100 mM phosphate buffer pH 6.8): did not significantly differ
- effect of predissolved TPH on API solubility [2]: enhanced
- effect of predissolved CFN on API solubility [2]: enhanced
- solubility ([2]; in the absence of CFN (CFN series)): 1760 ± 44 µM (≈ 521 µg/mL)
- solubility ([2]; in the absence of TPH (TPH series)): 1690 ± 53 µM (≈ 499 µg/mL)
- effect of famotidine (FAM) on final solubility ([3]; equilibrated solution, FAM delayed dissolution): not affected
- solubility during the predissolution procedure [3]: 829 µM (≈ 246 µg/mL)
- solubility during the codissolution procedure [3]: 3390 µM (≈ 1000 µg/mL)

SMILES: CC(C)Cc1ccc([C@H](C)C(=O)O)cc1 [IBP, (S)-(+)-ibuprofen]
- solubility ([8]; 25 mM phosphate buffer (pH 6.88)): ~20000 µM (≈ 4130 µg/mL)
- solubility ([8]; 100 mM phosphate buffer (pH 7.18)): approximately 40 mM
- change of solubility in mixtures with lidocaine (LDC) ([8]; mixtures with LDC, without pH fluctuations): reduced
- effect of codissolved CFN on API solubility / saturated concentration ([4]; 100 mM phosphate buffer pH 6.8): decreased
- effect of codissolved TBR on API dissolution curve / saturated concentration ([4]; 100 mM phosphate buffer pH 6.8): did not significantly affect
- effect of codissolved TPH on API solubility / saturated concentration ([4]; 100 mM phosphate buffer pH 6.8): decreased
- effect of codissolved XAT on API dissolution curve / saturated concentration ([4]; 100 mM phosphate buffer pH 6.8): did not significantly affect
- effect of predissolved TPH on API solubility [2]: did not influence
- effect of predissolved CFN on API solubility [2]: did not influence
- saturated concentration (curve fitting eq 1) ([2]; predissolved CFN series, irrespective of CFN): 17.22 ± 0.61 mM
- saturated concentration (curve fitting eq 1) ([2]; predissolved TPH series, irrespective of TPH): 17.34 ± 0.86 mM
